The source of these data is ChEMBL document CHEMBL3351515, “α-Hexylcinnamaldehyde inhibits the genotoxicity of environmental pollutants in the bacterial reverse mutation assay” (2014).

The test system of experiment [1] is Salmonella typhimurium. Briefly: Antimutagenic activity against sodium azide-induced revertant colonies in Salmonella typhimurium TA100 assessed as number of revertant colonies measured pretreatment at 90 uM (reference value: 1968 +/- 46.9) in absence of mammalian S9 fraction. It is filed as functional, Salmonella enterica subsp. enterica serovar Typhimurium.

Experiment [2] has as its system Salmonella typhimurium. Briefly: Antimutagenic activity against 2-aminoanthracene-induced revertant colonies in Salmonella typhimurium TA100 assessed as number of revertant colonies measured pretreatment at 9 uM (reference value: 481.3 +/- 5.3) in presence of mammalian S9 fraction. It is filed as functional, Salmonella enterica subsp. enterica serovar Typhimurium.

The test system of experiment [3] is Salmonella typhimurium. Briefly: Antimutagenic activity against sodium azide-induced revertant colonies in Salmonella typhimurium TA100 assessed as number of revertant colonies measured cotreatment at 9 uM (reference value: 1588 +/- 55.6) in absence of mammalian S9 fraction. The experiment is classed as functional, Salmonella enterica subsp. enterica serovar Typhimurium.

The subject of experiment [4] is Salmonella typhimurium. The experiment in a line: Antimutagenic activity against 2-aminoanthracene-induced revertant colonies in Salmonella typhimurium TA100 assessed as number of revertant colonies measured cotreatment at 900 uM (reference value: 457.9 +/- 16.74) in presence of mammalian S9 fraction. It is filed as functional, Salmonella enterica subsp. enterica serovar Typhimurium.

Experiment [5] deals with Escherichia coli. The experiment in a line: Antimutagenic activity against 2-aminoanthracene-induced revertant colonies in Escherichia coli WP2uvrA assessed as number of revertant colonies measured pretreatment at 900 uM (reference value: 178.7 +/- 11.8) in presence of mammalian S9 fraction. It is filed as functional.
Experiment [6] deals with Escherichia coli. The experiment in a line: Antimutagenic activity against methyl methansulfonate-induced revertant colonies in Escherichia coli WP2uvrA assessed as number of revertant colonies measured cotreatment at 9 uM (reference value: 485.3 +/- 17.5) in absence of mammalian S9 fraction. It is filed as functional.
Experiment [7] concerns Escherichia coli. Briefly: Antimutagenic activity against methyl methansulfonate-induced revertant colonies in Escherichia coli WP2uvrA assessed as number of revertant colonies measured cotreatment at 18 uM (reference value: 485.3 +/- 17.5) in absence of mammalian S9 fraction. The experiment is classed as functional.
The test system of experiment [8] is Escherichia coli. The experiment in a line: Antimutagenic activity against 2-aminoanthracene-induced revertant colonies in Escherichia coli WP2uvrA assessed as number of revertant colonies measured cotreatment at 9 uM (reference value: 366 +/- 10.3) in presence of mammalian S9 fraction. It is filed as functional.
Experiment [9] has as its system Escherichia coli. The experiment in a line: Antimutagenic activity against 2-aminoanthracene-induced revertant colonies in Escherichia coli WP2uvrA assessed as number of revertant colonies measured cotreatment at 90 uM (reference value: 366 +/- 10.3) in presence of mammalian S9 fraction. It is filed as functional.
Experiment [10] concerns Escherichia coli. Briefly: Antimutagenic activity against methyl methansulfonate-induced revertant colonies in Escherichia coli WP2uvrA assessed as number of revertant colonies measured post-treatment at 900 uM (reference value: 726.7 +/- 12.7) in absence of mammalian S9 fraction. The experiment is classed as functional.
The test system of experiment [11] is Escherichia coli. The experiment in a line: Antimutagenic activity against 2-aminoanthracene-induced revertant colonies in Escherichia coli WP2uvrA assessed as number of revertant colonies measured post-treatment at 18 uM (reference value: 308 +/- 4) in presence of mammalian S9 fraction. It is filed as functional.
The subject of experiment [12] is Escherichia coli. The experiment in a line: Antimutagenic activity against 2-aminoanthracene-induced revertant colonies in Escherichia coli WP2uvrA assessed as number of revertant colonies measured post-treatment at 90 uM (reference value: 308 +/- 4) in presence of mammalian S9 fraction. It is filed as functional.
The test system of experiment [13] is Escherichia coli. The experiment in a line: Antimutagenic activity against 2-aminoanthracene-induced revertant colonies in Escherichia coli WP2uvrA assessed as number of revertant colonies measured post-treatment at 180 uM (reference value: 308 +/- 4) in presence of mammalian S9 fraction. The experiment is classed as functional.
Experiment [14] deals with Salmonella typhimurium. The experiment in a line: Antimutagenic activity against 2-nitrofluorene-induced revertant colonies in Salmonella typhimurium TA98 assessed as inhibition of mutagenicity measured at 90 to 180 uM. It is filed as functional, Salmonella enterica subsp. enterica serovar Typhimurium.
For experiment [15], the system named is Salmonella typhimurium. The experiment in a line: Antimutagenic activity against 1-nitropyrene-induced revertant colonies in Salmonella typhimurium TA98 assessed as inhibition of mutagenicity measured at 90 to 180 uM. The experiment is classed as functional, Salmonella enterica subsp. enterica serovar Typhimurium.
The subject of experiment [16] is Salmonella typhimurium. The experiment in a line: Antimutagenic activity against 1-nitropyrene-induced revertant colonies in Salmonella typhimurium TA98 assessed as inhibition of mutagenicity measured at 900 uM. It is filed as functional, Salmonella enterica subsp. enterica serovar Typhimurium. Particulars: Salmonella enterica.
Experiment [17] deals with Salmonella typhimurium. Briefly: Antimutagenic activity against 1,8-dinitropyrene-induced revertant colonies in Salmonella typhimurium TA98 assessed as inhibition of mutagenicity measured at 900 uM. It is filed as functional, Salmonella enterica subsp. enterica serovar Typhimurium. The settings on record: Salmonella enterica.
The subject of experiment [18] is Salmonella typhimurium. The experiment in a line: Antimutagenic activity against 1-nitropyrene-induced revertant colonies in Salmonella typhimurium TA98 1,8 DNP assessed as inhibition of mutagenicity measured at 90 to 180 uM. The experiment is classed as functional, Salmonella enterica subsp. enterica serovar Typhimurium.

As usually defined, the inhibition is the share of the control response that was lost under treatment. For the compound `CCCCCC/C(C=O)=C\c1ccccc1`, the Activity was 1801 in the experiment on Salmonella typhimurium [1]; 465.3 with Salmonella typhimurium [2]; 1519 in the experiment with Salmonella typhimurium [3]; 347 with Salmonella typhimurium [4]; 141.3 in the experiment with Escherichia coli [5]; 484 in the experiment with Escherichia coli [6]. Further, the Activity in the experiment on Escherichia coli [7] is recorded as 485.3; with Escherichia coli [8], 336.8; in the experiment on Escherichia coli [9], 334.3; in the experiment on Escherichia coli [10], 474; in the experiment on Escherichia coli [11], 292; in the experiment with Escherichia coli [12], 308.7. The Activity in the experiment on Escherichia coli [13] is on record as 302.7. In addition, the “inhibition (INH)” value in the experiment on Salmonella typhimurium [14], in the experiment with Salmonella typhimurium [15] and with Salmonella typhimurium [18] was 25% in each case. Also, the inhibition at 900 µM with Salmonella typhimurium [16] and in the experiment with Salmonella typhimurium [17] was greater than 40% each time.
